Experiments:
[1] = In vivo pharmacokinetics in rats; conditions: Wistar, rat, plasma, po, male rats, 2 mg/kg p.o.; for bioavailability: AUCnorm intragastral / AUCnorm i.v. (0.5 mg/kg), read-out: F (oral bioavailability)
Protocol: 2.4 In Vivo Pharmacokinetics in Rats
For in vivo pharmacokinetic experiments test compounds were administered to male Wistar rats intravenously at a dose of 0.5 mg/kg and intragastral at a dose of 2 mg/kg formulated as solutions using solubilizers such as PEG400 or Solutol in well-tolerated amounts.
For pharmacokinetics after intravenous administration test compounds were given as i.v. bolus and blood samples were taken at 2 min, 8 min, 15 min, 30 min, 45 min, 1 h, 2 h, 4 h, 7 h and 24 h after dosing. […] For pharmacokinetics after intragastral administration test compounds were given intragastral to fasted rats and blood samples were taken at 8 min, 15 min, 30 min, 45 min, 1 h, 2 h, 4 h, 7 h and 24 h after dosing. […] Blood was collected into Lithium-Heparintubes (Monovetten®, Sarstedt) and centrifuged for 15 min at 3000 rpm. An aliquot of 100 μL from the supernatant (plasma) was taken and precipitated by addition of 400 μL cold acetonitril and frozen at −20° C. over night. Samples were subsequently thawed and centrifuged at 3000 rpm, 4° C. for 20 minutes. Aliquots of the supernatants were taken for analytical testing using an Agilent 1200 HPLC-system with LCMS/MS detection. PK parameters were calculated by non-compartmental analysis using a PK calculation software.
PK parameters derived from concentration-time profiles after i.v.: CLplasma: Total plasma clearance of test compound (in L/kg/h); CLblood: Total blood clearance of test compound: CLplasma*Cp/Cb (in L/kg/h) with Cp/Cb being the ratio of concentrations in plasma and blood. PK parameters calculated from concentration time profiles after i.g.: Cmax: Maximal plasma concentration (in mg/L); Cmaxnorm: Cmax divided by the administered dose (in kg/L); Tmax: Time point at which Cmax was observed (in h). Parameters calculated from both, i.v. and i.g. concentration-time profiles: AUCnorm: Area under the concentration-time curve from t=0 h to infinity (extrapolated) divided by the administered dose (in kg*h/L); AUC(0−tlast)norm: Area under the concentration-time curve from t=0 h to the last time point for which plasma concentrations could be measured divided by the administered dose (in kg*h/L); t½: terminal half-life (in h); F: oral bioavailability: AUCnorm after intragastral administration divided by AUCnorm after intravenous administration (in %).

[2] = tested on: LH level in ovariectomized rats; assay: LH suppression in the ovariectomized rat; format: in vivo; conditions: for LH suppression: 8 hours after administration
From the text: 2.5. LH Suppression in the Ovariectomized Rat
The in vivo potency of GnRH antagonists can be quantified by a LH suppression test in ovariectomized rats. GnRH triggers the LH release from the pituitary mediated by GnRH receptors. Ovarectomy of adult female rats results in elevated levels of circulating LH due to a lack of negative feedback by gonadal steroids. GnRH antagonists suppress the release of LH and accordingly suppression of LH levels can be used to quantify the in vivo potency of GnRH antagonists.
Female adult rats were ovariectomized surgically and they were allowed to recover for at least one week. The animals received 0.5 mg/kg, 3 mg/kg or 10 mg/kg of Example 3.1 by single per oral administration. For comparison reasons a vehicle control and a positive control, 0.1 mg/kg cetrorelix (i.p.), were given once. At 0 min, 15 min, 30 min, 1 hour, 2 hours, 4 hours, 8 hours and 24 hours after compound administration blood was taken from the retro orbital plexus (n=6 per blood withdrawal) for the measurement of serum LH and serum compound levels.
As nonbinding explanatory example of compounds according to the invention FIG. 1 represents the LH level following administration of the compound according to Example 3.1, to ovariectomized adult rats. [Filled circle: Vehicle; Circle, dotted black line: Cetrorelix (0.1 mg/kg); Triangle: Example 3.1 (0.5 mg/kg); Reverse triangle: Example 3.1 (3 mg/kg); Diamond: Example 3.1 (10 mg/kg)]. Values are given as mean+standard deviation (n=6).

Structure (SMILES) | half-life [1] [h] | bioavailability [1] [%] | LH suppression ([2]; 0.5 mg/kg single per oral administration) [%] | LH suppression ([2]; 3 mg/kg single per oral administration) [%] | LH suppression ([2]; 10 mg/kg single per oral administration) [%] | in vivo GnRH antagonist activity (conclusion) ([2]; per oral administration)
O=C(NCc1ncc(C(F)(F)F)cc1F)c1ccc2c(c1)C1(CCS(=O)(=O)CC1)[C@H](C1CC1)N2S(=O)(=O)c1ccc(F)cc1 (single isomer, unassigned) [Example 1.1] | 5.2 | 32 |  |  |  | 
N#Cc1cccc(S(=O)(=O)N2c3ccc(C(=O)NCc4ncc(C(F)(F)F)cc4Cl)cc3C3(CCS(=O)(=O)CC3)[C@@H]2C2CC2)c1 (single isomer, unassigned) [Example 10.1] | 3.3 | 23 |  |  |  | 
O=C(NCc1ncc(C(F)(F)F)cc1Cl)c1ccc2c(c1)C1(CCS(=O)(=O)CC1)[C@H](C1CC1)N2S(=O)(=O)c1ccc(F)cc1 [Example 3.1, (2S)—N-{[3-chloro-5-(trifluoromethyl)pyridin-2-yl]methyl}-2-cyclopropyl-1-[(4-fluorophenyl)sulfonyl]-1,2,2′,3′,5′,6′-hexahydrospiro[indole-3,4′-thiopyran]-5-carboxamide 1′,1′-dioxide] | 17 | 87 | 19 | 48 | 90 | orally active GnRH antagonist in vivo

From patent US20160052936A1, “SPIROINDOLINE DERIVATIVES FOR USE AS GONADOTROPIN-RELEASING HORMONE RECEPTOR ANTAGONISTS” (BAYER PHARMA AKTIENGESELLSCHAFT, priority 2013, published 2016)
